Measured values published in ChEMBL document CHEMBL1201862, “PubChem BioAssay data set” (2004).
Activity calls are given as the source filed them. Starred links: 1 amine or outer side, 2 acyl side, 3 side chain; linkers in the order of their positions; H or OH if unused. Positions of bridges follow the written chain, without caps; N, C: chain ends. Non-standard residues stand in square brackets, D forms with d. Residues, ends and D or L forms follow the SMILES beside them. Chains are numbered I, II in the order given. Actinocin(1to9) = Cc1c2oc3c(C)ccc(C(=O)[*:2])c3nc-2c(C(=O)[*:1])c(N)c1=O; aThr = C[C@H](O)[C@H](N)C(=O)O; NMeV = CN[C@H](C(=O)O)C(C)C; Sar = CNCC(=O)O

Experiments:
P388 = assay: cells; assay type: functional
P388/ADR = assay: cells; assay type: functional
SN12K1 = assay: cells; assay type: functional
[1] = viability of uninfected HEp-2 cells – cell-based, HTS, cytotoxicity control for RSV inhibitor project, dose response (AID 2410); assay type: functional; conditions: human respiratory syncytial virus
Streptokinase A = molecular target: T1, Streptokinase A (Streptococcus pyogenes serotype M1, UniProt P10520); assay: viability-normalized secreted streptokinase activity reduction – plasminogen activation absorbance, OD405, dose response (AID 1914); assay type: functional, Streptococcus pyogenes M1 GAS;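 note: secreted streptokinase activity via plasminogen activation per viability signal from cell pellet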
T1 sequence (P10520 whole entry): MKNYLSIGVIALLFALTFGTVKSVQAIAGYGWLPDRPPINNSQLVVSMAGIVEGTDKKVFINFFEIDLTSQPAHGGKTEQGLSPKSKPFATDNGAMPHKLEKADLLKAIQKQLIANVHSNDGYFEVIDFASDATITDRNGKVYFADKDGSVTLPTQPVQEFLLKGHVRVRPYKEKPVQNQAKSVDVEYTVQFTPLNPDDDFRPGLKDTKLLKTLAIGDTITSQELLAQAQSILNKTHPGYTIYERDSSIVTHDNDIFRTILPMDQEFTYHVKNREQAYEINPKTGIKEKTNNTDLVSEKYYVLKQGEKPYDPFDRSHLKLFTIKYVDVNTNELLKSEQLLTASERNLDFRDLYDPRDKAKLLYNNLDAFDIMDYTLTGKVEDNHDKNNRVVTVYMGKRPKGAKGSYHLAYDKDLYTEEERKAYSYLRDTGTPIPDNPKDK

Streptococcus = assay: GAS UMAA2166 growth inhibition – luminescence, BacTiterGlo, counter-screen for streptokinase expression inhibitor project, dose response (AID 1915); assay type: functional, organism-based;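 note: potency for reduction of bacterial viability or growth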
[2] = system: Streptococcus sp. 'group A'; assay: Streptococcus pyogenes SK(-)GAS viability under kanamycin – luminescence, BacTiterGlo, confirmation, counter-screen for streptokinase expression inhibitor project, dose response (AID 1900); assay type: functional, organism-based
[3] = microbe, parasite or virus in culture; assay type: functional; conditions: Mycobacterium tuberculosis
[4] = Luminescence Cell-Based Dose Confirmation HTS to Identify Inhibitors of Platelet Dense Granule Release. [Related pubchem assays: 1663 (Primary HTS), 1678 (Summary of Project)]; assay type: functional
[5] = molecular target: Luciferin 4-monooxygenase (Photinus pyralis, UniProt P08659); assay: inhibition of purified Photinus pyralis luciferase – biochemical, luminescence, dose response (AID 1891)
[6] = Luminescence Cell-Based Dose Response HTS to Identify Activators of Luciferase Translation or Activity in H4 […] Cells. [Related pubchem assays: 1829 (Project Summary), 1814 (Primary HTS)]; assay type: functional
Cytochrome P450 2D6 = Cytochrome P450 2D6 (Homo sapiens, UniProt P10635);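 note: CYP2D6 member of a cytochrome P450 panel assay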
Cytochrome P450 1A2 = molecular target: T2, Cytochrome P450 1A2 (Homo sapiens, UniProt P05177);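 note: PubChem cytochrome P450 panel assay, CYP1A2 panel member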
T2 sequence (P05177 whole entry): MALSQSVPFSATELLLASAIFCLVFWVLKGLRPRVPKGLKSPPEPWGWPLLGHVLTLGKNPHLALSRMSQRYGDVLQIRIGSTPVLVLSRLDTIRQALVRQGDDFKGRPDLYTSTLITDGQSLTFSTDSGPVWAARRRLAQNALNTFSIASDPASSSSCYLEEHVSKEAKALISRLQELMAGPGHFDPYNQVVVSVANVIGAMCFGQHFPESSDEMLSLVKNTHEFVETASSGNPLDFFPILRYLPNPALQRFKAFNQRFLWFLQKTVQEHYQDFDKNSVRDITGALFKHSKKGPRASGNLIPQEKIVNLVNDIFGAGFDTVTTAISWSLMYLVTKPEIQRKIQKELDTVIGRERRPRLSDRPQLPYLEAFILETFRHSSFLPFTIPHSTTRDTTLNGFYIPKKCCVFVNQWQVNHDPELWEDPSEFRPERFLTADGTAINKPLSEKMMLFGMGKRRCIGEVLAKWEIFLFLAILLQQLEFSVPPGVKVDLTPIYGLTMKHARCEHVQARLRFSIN

[7] = blockers of HIV-1 envelope-mediated cell-cell fusion – cherry-pick, dose response (AID 652057); assay type: functional, cell-based
[8] = Luminescence Cell-Based Dose Confirmation HTS to Identify Activators of 5'UTR Stem-Loop Driven Alpha-Synuclein mRNA Translation in H4 Neuroglioblastoma Cells. [Related pubchem assays: 1829 (Project Summary), 1814 (Primary HTS)]; assay type: functional
[9] = HIV-1 AD8 envelope cell-cell fusion blockers – cherry-pick, dose response (AID 652062); assay type: functional, cell-based;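 note: luciferase signal from cell-cell fusion driven by HIV-1 clade B AD8 Env; potency is for inhibitors of fusion seen as a drop in luminescence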
[10] = molecular target: T3, Microphthalmia-associated transcription factor (Homo sapiens, UniProt O75030); assay: reducers of TRPM1 reporter luminescence, concentration series – cell-based, SK-MEL-5, cherry-picked, set 3, MITF inhibitor project, dose response (AID 493073); assay type: functional;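 note: SK-MEL-5 melanoma cells with luciferase driven by the MITF target TRPM1 promoter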
T3 sequence (O75030 whole entry): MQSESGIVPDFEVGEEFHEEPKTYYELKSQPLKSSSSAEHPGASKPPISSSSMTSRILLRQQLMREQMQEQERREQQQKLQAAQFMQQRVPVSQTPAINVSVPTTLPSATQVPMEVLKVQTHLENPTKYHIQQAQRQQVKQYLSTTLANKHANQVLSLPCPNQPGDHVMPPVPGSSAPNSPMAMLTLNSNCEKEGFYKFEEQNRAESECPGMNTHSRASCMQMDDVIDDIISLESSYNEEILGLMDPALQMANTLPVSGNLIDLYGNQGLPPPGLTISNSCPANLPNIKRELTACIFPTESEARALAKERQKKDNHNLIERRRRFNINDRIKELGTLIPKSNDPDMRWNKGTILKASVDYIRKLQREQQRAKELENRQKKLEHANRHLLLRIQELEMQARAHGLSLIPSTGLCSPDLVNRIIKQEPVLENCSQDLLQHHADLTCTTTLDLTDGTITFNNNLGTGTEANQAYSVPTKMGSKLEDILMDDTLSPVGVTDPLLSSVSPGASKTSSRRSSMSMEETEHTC

Luciferin 4-monooxygenase, sequence (P08659 whole entry): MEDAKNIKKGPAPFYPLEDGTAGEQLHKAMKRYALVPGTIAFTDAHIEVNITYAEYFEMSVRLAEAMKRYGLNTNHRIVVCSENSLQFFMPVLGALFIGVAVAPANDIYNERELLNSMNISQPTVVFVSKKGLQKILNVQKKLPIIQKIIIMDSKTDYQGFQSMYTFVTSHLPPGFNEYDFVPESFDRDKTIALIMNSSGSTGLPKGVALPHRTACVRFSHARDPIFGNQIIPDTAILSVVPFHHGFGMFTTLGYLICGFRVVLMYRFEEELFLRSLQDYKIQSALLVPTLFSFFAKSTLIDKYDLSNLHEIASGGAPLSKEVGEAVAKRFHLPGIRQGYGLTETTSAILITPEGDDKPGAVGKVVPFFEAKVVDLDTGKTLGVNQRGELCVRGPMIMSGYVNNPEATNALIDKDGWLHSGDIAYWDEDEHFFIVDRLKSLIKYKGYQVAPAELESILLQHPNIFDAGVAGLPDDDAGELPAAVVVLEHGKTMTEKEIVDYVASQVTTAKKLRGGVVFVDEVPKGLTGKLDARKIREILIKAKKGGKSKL
Cytochrome P450 2D6, sequence (P10635 whole entry): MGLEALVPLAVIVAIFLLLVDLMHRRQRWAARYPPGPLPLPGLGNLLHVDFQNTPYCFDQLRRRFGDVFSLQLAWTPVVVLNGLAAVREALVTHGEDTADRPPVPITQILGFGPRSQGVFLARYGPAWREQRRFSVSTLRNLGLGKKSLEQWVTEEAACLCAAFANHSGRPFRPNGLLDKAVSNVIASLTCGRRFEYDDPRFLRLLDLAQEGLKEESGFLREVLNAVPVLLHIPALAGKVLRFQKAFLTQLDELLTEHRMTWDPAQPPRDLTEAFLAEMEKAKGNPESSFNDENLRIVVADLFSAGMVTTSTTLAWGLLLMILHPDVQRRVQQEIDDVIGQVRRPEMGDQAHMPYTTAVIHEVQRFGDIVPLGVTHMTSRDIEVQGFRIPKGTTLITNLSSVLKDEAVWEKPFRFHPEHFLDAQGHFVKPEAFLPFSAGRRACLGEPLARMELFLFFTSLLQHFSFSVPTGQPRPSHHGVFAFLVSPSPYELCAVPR

NC1=NC(=O)/C(=C2\CCNC(=O)c3[nH]c(Br)cc32)N1 [HYMENIALDISINE]
GI50 (P388; Mus musculus, P388): 3.97 µM (inactive) | GI50 (P388/ADR; Mus musculus, P388/ADR): 7.28 µM (inactive) | GI50 (SN12K1; Homo sapiens, SN12K1): 12.3 µM (inactive)

Cc1ncc2c(n1)-c1cc(F)ccc1SC2
CC50 [1]: 40.5 µM (active)

CC12CCC(CC1)C(C)(C)O2 [EUCALYPTOL]
EC50 (Streptokinase A): > 150 µM (not active) | GI50 (P388; Mus musculus, P388): 9.1 µM (inactive) | EC50 (Streptococcus): > 150 µM (not active) | GI50 (P388/ADR; Mus musculus, P388/ADR): 8.17 µM (inactive) | EC50 [2]: > 150 µM (not active) | GI50 (SN12K1; Homo sapiens, SN12K1): 21.9 µM (inactive)

COc1ccc(-n2cc(CNCCc3cscn3)c(-c3ccccc3Cl)n2)cc1
CC50 [3]: > 40 µM (active)

COc1ccc(N2CCN(c3ccnc4cc(Cl)ccc34)CC2)cc1
CC50 [3]: > 40 µM (active)

CSc1ccccc1OCc1cc(C(=O)N2CCC(Oc3cccnc3)CC2)no1
CC50 [3]: > 40 µM (active)

COc1ccc(CCNC(=O)c2cc3sc(Cl)cc3n2C)cc1OC
CC50 [1]: 27.5 µM (active)

COc1cc2c(cc1OC)C(C(c1ccccc1)c1ccccc1)N(C)CC2 (stereo not given)
GI50 (P388; Mus musculus, P388): 24.5 µM (inactive) | GI50 (P388/ADR; Mus musculus, P388/ADR): 41.6 µM (inactive) | GI50 (SN12K1; Homo sapiens, SN12K1): 32.6 µM (inactive)

O=C(O)CCC(NC(=O)c1ccc(Nc2nc3cc(C(F)(F)F)ccc3nc2-c2ccccc2)cc1)C(=O)O (stereo not given)
GI50 (P388; Mus musculus, P388): 26.5 µM (inactive) | GI50 (P388/ADR; Mus musculus, P388/ADR): 38.5 µM (inactive) | GI50 (SN12K1; Homo sapiens, SN12K1): 48.2 µM (inactive)

Oc1c(Cl)cccc1/C=N/c1cc(C(F)(F)F)ccc1N1CCCC1
EC50 [4]: > 112 µM (not active) | EC50 [5]: > 112 µM (not active)

CCC(=O)Nc1cccc(-c2nnc(SCC(=O)c3ccccc3)n2C)c1
EC50 [6]: 47.5 µM (active)

O=C(/C=C/c1ccccc1)NCC1(c2ccccc2)CCOCC1
EC50 [4]: > 112 µM (not active) | EC50 [5]: > 112 µM (not active)

CCn1c(O)c(N=NC(=O)c2ccc(CSc3nncn3C)cc2)c2ccccc21
EC50 [4]: > 112 µM (not active) | EC50 [5]: > 112 µM (not active)

CCc1cc(=O)oc2cc(C)cc(OCC(=O)NCc3cccnc3)c12
EC50 [4]: > 112 µM (not active) | EC50 [5]: > 112 µM (not active)

CCCCNC(=O)c1cccc(S(=O)(=O)N2CC3(C)CC2CC(C)(C)C3)c1 (stereo not given)
CC50 [1]: 26.5 µM (active)

O=C1C=C2SC3C[C@@]24CC1[N+]1=c2c4c(c(O)c4c2=C(C=N4)CC1)N3
GI50 (P388; Mus musculus, P388): 1.83 µM (inactive) | GI50 (P388/ADR; Mus musculus, P388/ADR): 6.35 µM (inactive) | GI50 (SN12K1; Homo sapiens, SN12K1): 1.94 µM (inactive)

Nc1[nH]nc(C2CC2)c1N=Nc1ccc(Cl)cc1
CC50 [3]: > 40 µM (active)

CCOC(=O)c1c(N)sc(-c2ccccc2)c1C
CC50 [1]: 28.5 µM (active)

Cc1c2oc3c(C)ccc(C(=O)N[C@@H]4C(=O)N[C@H](C(C)C)C(=O)N5CCC[C@H]5C(=O)N(C)CC(=O)N(C)[C@@H](C(C)C)C(=O)O[C@H]4C)c3nc-2c(C(=O)N[C@@H]2C(=O)N[C@H](C(C)C)C(=O)N3CCC[C@H]3C(=O)N(C)CC(=O)N(C)[C@@H](C(C)C)C(=O)O[C@H]2C)c(N)c1=O (I: [aThr][dV]P[Sar][NMeV] / II: [aThr][dV]P[Sar][NMeV]; ester I:1-I:C, II:1-II:C; linker I:N-II:N via Actinocin(1to9))
GI50 (P388; Mus musculus, P388): 0.00025 µM (active) | GI50 (P388/ADR; Mus musculus, P388/ADR): 0.00442 µM (active) | GI50 (SN12K1; Homo sapiens, SN12K1): 0.000337 µM (active)

CCOC(=O)c1c(C)c2c(n1C)CCc1c[nH]nc1-2
GI50 (P388; Mus musculus, P388): > 100 µM (inactive) | GI50 (P388/ADR; Mus musculus, P388/ADR): > 31.6 µM (inactive) | GI50 (SN12K1; Homo sapiens, SN12K1): > 100 µM (inactive)

CCOC(=O)c1c(CN2CCN(Cc3ccccc3)CC2)n(C)c2cc(Br)c(OC)cc12
CC50 [3]: > 40 µM (active)

O=C(COc1ccc(C(=O)c2ccccc2)cc1)NC1CCCCC1
EC50 [4]: > 112 µM (not active) | EC50 [5]: > 112 µM (not active)

COC(C(=O)C(O)C(C)O)C1Cc2cc3cc(OC4CC(OC(C)=O)C(OC5CC(O)C(OC)C(C)O5)C(C)O4)cc(O)c3c(O)c2C(=O)C1OC1CC(OC2CC(OC3CC(C)(O)C(OC(=O)C(C)C)C(C)O3)C(O)C(C)O2)C(O)C(C)O1 (stereo not given)
GI50 (P388): 0.0075 µM (active) | GI50 (P388; Mus musculus, P388): 0.0123 µM (active) | GI50 (P388/ADR): 5.12 µM (inactive) | GI50 (P388/ADR; Mus musculus, P388/ADR): 5.98 µM (inactive) | GI50 (SN12K1): 0.00895 µM (active) | GI50 (SN12K1; Homo sapiens, SN12K1): 0.01 µM (active)

CCOc1ccc(OCc2ccc(C(=O)NCc3cccnc3)o2)cc1
EC50 [4]: > 112 µM (not active) | AC50 (Cytochrome P450 2D6): 1.26 µM (inconclusive) | EC50 [5]: > 112 µM (not active)

C=CC1(C)CC(=O)C2(O)C(C)(O1)C(OC(C)=O)C(O)C1C(C)(C)CCC(O)C12C (stereo not given)
GI50 (P388; Mus musculus, P388): 56.4 µM (inactive) | GI50 (P388/ADR; Mus musculus, P388/ADR): 43.9 µM (inactive) | GI50 (SN12K1; Homo sapiens, SN12K1): 65.3 µM (inactive)

Clc1ccc2c(c1)C1=C(C(c3ccncc3)O2)C(c2ccc(Br)cc2)n2ncnc2N1 (stereo not given)
AC50 (Cytochrome P450 1A2): 25.1 µM (inconclusive) | AC50 [7]: 11.2 µM (active)

CC(=O)C(=NNc1ccc2c(c1)OCO2)C(C)=O
EC50 [8]: 13.9 µM (active) | EC50 [6]: 27.8 µM (active)

C[C@H]1CN([C@@H](C)CO)C(=O)c2ccccc2-c2ccccc2CO[C@@H]1CN(C)C(=O)Nc1cccc(C(F)(F)F)c1
AC50 [9]: 19 µM (active) | AC50 [7]: < 0.26 µM (active)

Cn1nnnc1Sc1ncnc2scc(-c3cccs3)c12
AC50 [10]: 7 µM (active)

CCOC(=O)Cn1c(=O)n(Cc2ccco2)c(=O)c2ccc(C(=O)NC3CCCC3)cc21
EC50 [4]: 13.8 µM (active) | EC50 [5]: > 112 µM (not active)
